Patent US12679853B2, “Magnesium-serinate compound and use thereof” (priority 2018, dated 2026)

Assays:
[1] = system: mitochondria in the hippocampal neuron cell line HT-22; assay: Seahorse XF Cell Mito Stress Test, mitochondrial oxygen consumption rate; conditions: HT-22, 4 h drug treatment, various concentrations
Experimental: All procedures were performed according to the protocol of the Mito Stress Test Kit. First, hippocampal neuronal HT-22 cells were seeded into an XP-96 cell culture plate at a density of 8×10^3 cells/well, and then incubated in DMEM medium in a CO2 incubator at 37° C. for 12 hours. Then, the cells were treated with various concentrations of each of serine and the AST-011 drug. 4 hours after drug treatment, the medium was replaced with fresh medium, and the cells were further incubated in a CO2 incubator at 37° C. for 12 hours. After 12 hours of incubation, the cells were washed twice with assay medium (10 mM glucose, 1 mM pyruvate, 2 mM glutamine, pH 7.4), and 180 μl of medium was added thereto. Then, the cells were incubated in a non-CO2 incubator at 37° C. for 1 hour, and analyzed by a Seahorse extracellular flux (XF) analyzer.

[2] = Blood-brain barrier (BBB) permeability, L-serine in blood and brain by LC/MS; parameters: species or system ICR mice; conditions: male, ICR, mouse, in vivo, po, 600 mg/kg
Experimental: Each of L-serine and AST-011 was administered to 7-week-old ICR mice (n=3) at a dose of 600 mg/kg, and then the brain tissue and the blood were collected. The concentrations of L-serine distributed in the blood and the brain were quantified using LC/MS, and the BBB permeability was compared between the drugs by calculating the ratio of the concentration of L-serine in the brain to that in the blood.

[3] = system: Murine hippocampal neuronal cell line HT-22; assay: Cell viability (MTT) assay for neuronal cell proliferation activity
Experimental: Murine hippocampal neuronal cell line HT-22 was cultured in Dulbecco's Modified Eagle's Medium (DMEM) supplemented with 10% fetal bovine serum (FBS) and 100 μg/ml gentamycin at 37° C. under a 5% CO2 atmosphere. In this Example, cells at passage 15 or below were used.
Cell proliferation activity was examined by an MTT assay for measuring cell viability. First, hippocampal neuronal cell HT-22 (1×10^4 cells) was incubated with each of serially diluted sample solutions in 96-well plates for 16 hours, and then mixed with 50 μl of MTT (3-(4,5-dimethyl thiazolyl)2,5-diphenyl tetrazolium bromide) solution (1.1 mg/ml), followed by additional incubation for 4 hours. The formed formazan crystal was dissolved in 150 μl of DMSO solution, and the optical density (OD) at 540 nm was measured using a plate reader.

[4] = system: mouse hippocampal neuronal HT-22 cells, treated with DMNQ; assay: Neuronal cell protective activity against DMNQ-induced oxidative stress (DiOC6 staining, flow cytometry); type: cell-based; conditions: HT-22, DMNQ (10 μM) alone
Experimental: First, 1×10^6 cells were washed three times with 2% FBS-containing PBS solution, and the washed cells were suspended in 70% ethanol and fixed at 4° C. for 1 hour. The fixed cells were washed twice with the same solution, suspended in 250 μl of RNase A solution (50 μg/ml concentration), and incubated at 37° C. for 30 minutes to remove RNA from the cells. […] The cells were analyzed with a flow cytometer (FACS Calibur), and the distribution of the cell cycle was examined based on the content of stained DNA in each cell.

SMILES | oxygen consumption rate (OCR) value of mitochondria [1] | Concentration Plasma (L-serine) [2] | activation of cell proliferation ([3]; HT-22, complete medium, 25 to 10,000 μg) | viability at 500 µg/mL ([3]; Mus musculus, HT-22, read-out: cell viability) | cell damage rate [4]
N[C@@H](CO)C(=O)O [L-serine] | OCR value increased at a treatment concentration of up to 100 μg/ml and then decreased slightly at 500 μg/ml | 636 ± 55.2 ng/mL | did not significantly activate cell proliferation | 125% | 
COC1=C(OC)C(=O)c2ccccc2C1=O [DMNQ, 2,3-dimethoxy-1,4-napthoquinone] |  |  |  |  | 77.8%
